Source: patent US6958347B2, “Aminophenanthridinone and aminophenanthridine as NPY-5 antagonists” (Pfizer Inc., priority 2002, dated 2005)

Biological target: T1, Y1 (Homo sapiens, UniProt P25929)
T1 sequence (P25929 1-384): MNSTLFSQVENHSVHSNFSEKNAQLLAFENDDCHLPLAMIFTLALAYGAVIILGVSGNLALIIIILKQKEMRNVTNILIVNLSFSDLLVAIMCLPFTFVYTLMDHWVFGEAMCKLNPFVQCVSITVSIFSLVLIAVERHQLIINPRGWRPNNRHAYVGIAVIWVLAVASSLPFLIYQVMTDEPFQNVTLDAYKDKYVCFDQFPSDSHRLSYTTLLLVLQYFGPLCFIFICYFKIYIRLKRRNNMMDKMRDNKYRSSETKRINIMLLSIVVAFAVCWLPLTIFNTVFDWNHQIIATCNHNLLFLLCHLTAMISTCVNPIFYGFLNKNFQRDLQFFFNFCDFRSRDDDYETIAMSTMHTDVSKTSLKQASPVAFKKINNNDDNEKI
Assay: Endogenous NPY response of host Bowes melanoma cells (low levels of Y1 responses)
Settings: 10 uM; human Bowes melanoma cells (HMCB)

block of the endogenous NPY response: completely blocks
SMILES: NC(N)=NCCC[C@@H](NC(=O)C(c1ccccc1)c1ccccc1)C(=O)NCc1ccc(O)cc1 [BIBP3226]
